The values below come from ChEMBL document CHEMBL6087433, “Discovery of ART0380, a Potent and Selective ATR Kinase Inhibitor Undergoing Phase 2 Clinical Studies for the Treatment of Advanced or Metastatic Solid Cancers” (J Med Chem, 2024).

Data set [1] concerns the target T1, Serine/threonine-protein kinase mTOR (Homo sapiens, UniProt P42345).
The target of data set [2] is T1, Serine/threonine-protein kinase mTOR. The source holds these as a separate data set.
Description: Inhibition of mTOR (unknown origin) by LANCE Ultra assay
Data set [3] addresses Serine/threonine-protein kinase ATR (Homo sapiens, UniProt Q13535).
Another data set is described as follows: in vitro. The settings on record: human, human liver microsomes. Background: Liver microsomes are vesicles of endoplasmic reticulum, rich in cytochrome P450 enzymes.
The target of a further data set is CYP3A4 (Homo sapiens, UniProt P08684). The data set can be described thus: in vitro. The settings on record: human liver microsomes, probe midazolam.
Sequence of CYP3A4 (P08684 whole entry): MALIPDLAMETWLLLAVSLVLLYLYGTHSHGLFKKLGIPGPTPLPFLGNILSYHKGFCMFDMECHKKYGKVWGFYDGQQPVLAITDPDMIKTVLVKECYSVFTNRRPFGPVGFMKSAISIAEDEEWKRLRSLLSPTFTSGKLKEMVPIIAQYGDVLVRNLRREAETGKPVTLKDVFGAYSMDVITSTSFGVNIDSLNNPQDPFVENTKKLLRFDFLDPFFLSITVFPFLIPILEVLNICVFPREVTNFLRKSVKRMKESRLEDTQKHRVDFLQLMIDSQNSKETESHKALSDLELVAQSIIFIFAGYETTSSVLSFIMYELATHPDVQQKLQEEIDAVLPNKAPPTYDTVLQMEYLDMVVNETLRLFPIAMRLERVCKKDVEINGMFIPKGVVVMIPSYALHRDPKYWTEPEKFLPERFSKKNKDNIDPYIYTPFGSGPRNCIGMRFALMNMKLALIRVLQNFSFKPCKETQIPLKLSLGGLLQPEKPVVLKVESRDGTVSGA

Sequence of Serine/threonine-protein kinase ATR (Q13535 whole entry): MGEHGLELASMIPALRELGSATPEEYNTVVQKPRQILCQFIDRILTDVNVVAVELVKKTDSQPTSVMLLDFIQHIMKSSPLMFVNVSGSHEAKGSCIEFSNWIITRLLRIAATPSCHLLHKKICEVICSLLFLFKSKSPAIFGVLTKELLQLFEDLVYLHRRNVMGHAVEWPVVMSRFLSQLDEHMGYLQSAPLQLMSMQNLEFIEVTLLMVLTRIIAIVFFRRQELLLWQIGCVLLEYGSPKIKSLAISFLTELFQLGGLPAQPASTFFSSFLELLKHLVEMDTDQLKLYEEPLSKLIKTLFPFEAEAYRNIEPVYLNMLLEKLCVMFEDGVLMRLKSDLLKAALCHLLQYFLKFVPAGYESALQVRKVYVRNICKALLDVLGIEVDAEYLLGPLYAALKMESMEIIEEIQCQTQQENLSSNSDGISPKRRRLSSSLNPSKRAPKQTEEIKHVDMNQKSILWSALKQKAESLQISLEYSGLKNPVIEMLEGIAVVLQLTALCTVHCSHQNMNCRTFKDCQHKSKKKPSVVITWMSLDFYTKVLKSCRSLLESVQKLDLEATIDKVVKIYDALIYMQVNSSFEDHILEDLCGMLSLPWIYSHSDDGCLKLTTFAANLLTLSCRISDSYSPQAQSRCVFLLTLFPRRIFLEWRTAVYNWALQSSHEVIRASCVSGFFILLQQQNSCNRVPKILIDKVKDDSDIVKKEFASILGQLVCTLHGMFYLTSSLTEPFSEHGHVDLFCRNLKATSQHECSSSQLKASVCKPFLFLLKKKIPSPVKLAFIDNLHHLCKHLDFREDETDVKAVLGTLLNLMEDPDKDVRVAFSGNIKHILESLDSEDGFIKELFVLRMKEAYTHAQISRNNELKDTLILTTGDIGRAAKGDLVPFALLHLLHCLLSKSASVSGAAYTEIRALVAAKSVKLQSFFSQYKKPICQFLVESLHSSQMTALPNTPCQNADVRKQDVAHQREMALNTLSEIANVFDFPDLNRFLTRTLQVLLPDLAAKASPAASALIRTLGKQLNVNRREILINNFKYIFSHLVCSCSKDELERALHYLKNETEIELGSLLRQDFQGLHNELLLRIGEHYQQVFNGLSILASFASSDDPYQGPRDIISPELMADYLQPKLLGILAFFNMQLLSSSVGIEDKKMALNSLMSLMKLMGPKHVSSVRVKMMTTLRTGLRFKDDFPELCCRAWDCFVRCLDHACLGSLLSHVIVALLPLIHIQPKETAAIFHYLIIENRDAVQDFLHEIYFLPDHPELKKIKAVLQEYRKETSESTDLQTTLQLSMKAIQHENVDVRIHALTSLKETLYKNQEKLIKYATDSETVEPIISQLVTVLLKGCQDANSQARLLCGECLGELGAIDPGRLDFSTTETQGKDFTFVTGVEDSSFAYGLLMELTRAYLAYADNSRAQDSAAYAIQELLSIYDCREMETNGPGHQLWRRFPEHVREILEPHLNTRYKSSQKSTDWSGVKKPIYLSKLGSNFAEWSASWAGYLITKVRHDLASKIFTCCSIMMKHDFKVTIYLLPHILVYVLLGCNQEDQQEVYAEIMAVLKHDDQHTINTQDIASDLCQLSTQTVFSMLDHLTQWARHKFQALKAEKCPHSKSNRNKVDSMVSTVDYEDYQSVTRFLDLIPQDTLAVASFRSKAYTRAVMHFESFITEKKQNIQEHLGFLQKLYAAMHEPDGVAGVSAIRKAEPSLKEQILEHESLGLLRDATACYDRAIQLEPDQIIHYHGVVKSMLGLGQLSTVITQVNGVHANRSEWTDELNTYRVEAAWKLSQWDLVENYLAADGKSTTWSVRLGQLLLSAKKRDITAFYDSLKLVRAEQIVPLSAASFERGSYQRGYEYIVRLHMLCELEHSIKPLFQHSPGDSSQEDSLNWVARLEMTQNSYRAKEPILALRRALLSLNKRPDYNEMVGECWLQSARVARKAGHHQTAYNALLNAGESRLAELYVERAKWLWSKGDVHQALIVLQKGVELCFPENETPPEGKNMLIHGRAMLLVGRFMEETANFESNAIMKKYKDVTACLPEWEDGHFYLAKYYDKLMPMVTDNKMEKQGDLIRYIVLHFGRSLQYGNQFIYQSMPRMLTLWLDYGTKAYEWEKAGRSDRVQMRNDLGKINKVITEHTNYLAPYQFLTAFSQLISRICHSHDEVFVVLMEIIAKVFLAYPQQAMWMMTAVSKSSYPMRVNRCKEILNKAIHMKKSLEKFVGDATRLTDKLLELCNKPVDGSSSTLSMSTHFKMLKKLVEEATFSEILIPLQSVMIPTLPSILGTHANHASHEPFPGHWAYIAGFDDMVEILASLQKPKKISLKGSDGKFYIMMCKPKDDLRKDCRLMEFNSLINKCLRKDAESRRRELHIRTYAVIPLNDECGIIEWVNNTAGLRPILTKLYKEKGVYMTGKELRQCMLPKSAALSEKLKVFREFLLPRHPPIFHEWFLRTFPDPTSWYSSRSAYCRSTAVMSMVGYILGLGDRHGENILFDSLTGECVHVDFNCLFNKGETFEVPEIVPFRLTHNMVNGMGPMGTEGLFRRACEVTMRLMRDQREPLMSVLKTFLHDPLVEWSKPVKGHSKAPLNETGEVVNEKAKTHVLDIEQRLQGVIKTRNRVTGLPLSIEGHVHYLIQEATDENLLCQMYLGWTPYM

By IC50 is commonly meant the concentration that inhibits the measured activity by half. `Cc1cc(-c2nc(N=S(C)(C)=O)cc(N3CCOC[C@H]3C)n2)cc(N)n1` registered an IC50 in data set [1] of more than 10000 nM.

In the case of `CC[S@@](C)(=O)=Nc1cc(N2CCOC[C@H]2C)nc(-c2ccnc3[nH]ccc23)n1`, the IC50 in data set [2] was 1120 nM; in data set [1] it was 1710 nM.

Compound `C[C@@H]1COCCN1c1cc(-c2ccnc3[nH]ccc23)nc(N=S(C)(C)=O)n1` came in with an IC50 in data set [1] of more than 10000 nM.

In the case of `C[C@@H]1COCCN1c1cc(C2CCN(S(C)(=O)=O)CC2)nc(-c2ccnc3[nH]ccc23)n1`, the IC50 in data set [2] was 217 nM; in data set [1], 496 nM.

Regarding `C[C@@H]1COCCN1c1cc(C2CCCN(S(C)(=O)=O)C2)nc(-c2ccnc3[nH]ccc23)n1` (mixture of isomers), the IC50 in data set [2] is 113 nM; in data set [1], 1300 nM; in data set [3] it was 134 nM.

As to `C[C@@H]1COCCN1c1cc(N=[S@](C)(=O)C2CC2)nc(-c2ccnc3[nH]ccc23)c1`, the values for the 50% inhibitory concentration (IC50) in data set [2] and in data set [1] were 2770 nM and 9650 nM, respectively.

On to `C[C@@H]1COCCN1c1cc(N=[S@@](C)(=O)C2CC2)nc(-c2ccnc3[nH]ccc23)c1`, for which the IC50 in data set [2] came out at 1190 nM; in data set [1], 8200 nM.

Turning to `C[C@@H]1COCCN1c1cc(N=S(C)(C)=O)nc(-c2ccnc3[nH]ccc23)c1`, the IC50 in data set [2] came out at 1600 nM; in data set [1], 8500 nM.

`CC[S@](C)(=O)=Nc1cc(N2CCOC[C@H]2C)nc(-c2ccnc3[nH]ccc23)n1`: the results for the IC50 in data set [2] and in data set [1] were 891 nM and 2160 nM, respectively.

On to `C[C@@H]1COCCN1c1cc(N2CCCN(C)S2(=O)=O)nc(-c2ccnc3[nH]ccc23)n1`, for which the IC50 in data set [2] is 81 nM; in data set [1], 420 nM.

For `C[C@@H]1COCCN1c1cc(N=S(C)(=O)C2CCOCC2)nc(-c2ccnc3[nH]ccc23)n1` (mixture of isomers), the IC50 in data set [1] is 6360 nM.

Consider `C[C@@H]1COCCN1c1cc(N=S(C)(C)=O)nc(-c2ccnc(N)c2)n1`, for which the IC50 in data set [2] came out at 4780 nM; in data set [1], 15400 nM.

As a reminder, the CLint scaled is the rate of metabolic loss divided by the concentration. A low value points to greater metabolic stability. Regarding `COc1cc(-c2nc(N=[S@@](C)(=O)C3CC3)cc(N3CCOC[C@H]3C)n2)cc(N)n1`, the IC50 in data set [2] amounted to 866 nM; in data set [1], 7000 nM. The same compound showed a CLint scaled at 0.75 h, 1 µM in the data set “in vitro” of 7.1 mL/min/kg.

The term inhibition denotes the drop in the measured response relative to a control, in per cent. High values mean a response far below the control, low ones a response near the control. As for `Cc1cc2c(-c3nc(N=S(C)(C)=O)cc(N4CCOC[C@H]4C)n3)ccnc2[nH]1`, the IC50 in data set [2] was 502 nM; in data set [1] it was 3340 nM. Also, the inhibition at 10 µM against CYP3A4 was 56%.

Consider `C[C@@H]1COCCN1c1cc(N=S(C)(=O)C2COC2)nc(-c2ccnc3[nH]ccc23)n1` (mixture of isomers), for which the IC50 in data set [2] was 307 nM; in data set [1] it was 2190 nM.

In the case of `C[C@@H]1COCCN1c1cc(N=[S@@](C)(=O)C2CC2)nc(-c2ccnc3[nH]ccc23)n1`, the figures for the IC50 in data set [2] and in data set [1] were 165 nM and 1660 nM, respectively.

As to `C[C@@H]1COCCN1c1cc(N=S(C)(C)=O)nc(-c2ccnc3[nH]ccc23)n1`, the IC50 in data set [2] worked out at 419 nM; in data set [1], 2400 nM.

As for `COc1cc(-c2nc(N=S(C)(C)=O)cc(N3CCOC[C@H]3C)n2)cc(N)n1`, the values for the IC50 in data set [2] and in data set [1] were 2210 nM and 8260 nM, respectively.

Turning to `C[C@@H]1COCCN1c1cc(N=S(C)(C)=O)nc(-c2ccnc(N)c2)c1`, the IC50 is more than 10000 nM in data set [1] and 875 nM in data set [3].

Regarding `COc1cc(-c2nc(N=[S@](C)(=O)C3COC3)cc(N3CCOC[C@H]3C)n2)cc(N)n1`, the IC50 is 2980 nM in data set [2] and 8240 nM in data set [1]. Besides, the CLint scaled at 0.75 h, 1 µM in “in vitro” came out at 2.4 mL/min/kg.

As to `C[C@@H]1COCCN1c1cc(C2CCCS2(=O)=O)nc(-c2ccnc3[nH]ccc23)n1` (mixture of isomers), the IC50 was 274 nM in data set [2] and 3900 nM in data set [1].

Take `COc1cc(-c2nc(N=[S@@](C)(=O)C3COC3)cc(N3CCOC[C@H]3C)n2)cc(N)n1`: the IC50 in data set [2] was 421 nM; in data set [1], 5250 nM. In the data set “in vitro”, this compound registered a CLint scaled at 0.75 h, 1 µM of 13 mL/min/kg.

For `C[C@@H]1COCCN1c1cc(N=[S@](C)(=O)C2CC2)nc(-c2ccnc3[nH]ccc23)n1`, the IC50 stood at 324 nM in data set [2] and 2380 nM in data set [1].
